Measurements: paper PMC9848300, “Discovery of novel enasidenib analogues targeting inhibition of mutant isocitrate dehydrogenase 2 as antileukaemic agents” (Journal of Enzyme Inhibition and Medicinal Chemistry, 2023)
Positions count from the first letter of the chain named.

What was measured:
IDH2 R140Q = details: Figure 2; cited from earlier work
MDA-MB-231/ATCC = experiment: NCI 60 antitumor screening (single dose / five doses); format: cell-based; details: Homo sapiens, MDA-MB-231
SR = experiment: as above; format: cell-based; details: Homo sapiens, SR
HCT-15 = experiment: as above; format: cell-based; details: Homo sapiens, HCT-15
SF-295 = experiment: as above; format: cell-based; details: Homo sapiens, SF-295
786-0 = experiment: as above; format: cell-based; details: Homo sapiens, 786-0
IDH2^R140Q = target: T1, IDH2^R140Q (Homo sapiens, UniProt P48735, R140Q); experiment: biochemical
T1 sequence (P48735 40-452 R140Q): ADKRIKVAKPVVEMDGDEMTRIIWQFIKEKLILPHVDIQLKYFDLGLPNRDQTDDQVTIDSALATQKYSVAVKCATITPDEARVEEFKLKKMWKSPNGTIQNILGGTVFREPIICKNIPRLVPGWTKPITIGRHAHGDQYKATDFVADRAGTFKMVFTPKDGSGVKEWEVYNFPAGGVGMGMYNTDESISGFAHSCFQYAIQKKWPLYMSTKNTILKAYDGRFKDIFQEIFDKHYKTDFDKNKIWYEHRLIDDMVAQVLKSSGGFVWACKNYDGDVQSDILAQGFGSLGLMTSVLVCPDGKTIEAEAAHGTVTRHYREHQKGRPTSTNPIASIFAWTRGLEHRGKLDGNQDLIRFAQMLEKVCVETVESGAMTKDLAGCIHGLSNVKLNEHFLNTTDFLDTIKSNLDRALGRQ

COLO 205 = experiment: NCI 60 antitumor screening (single dose / five doses); format: cell-based; details: Homo sapiens, COLO 205
MOLT-4 = experiment: as above; format: cell-based; details: Homo sapiens, MOLT-4
SNB-75 = experiment: as above; format: cell-based; details: Homo sapiens, SNB-75
RXF 393 = experiment: as above; format: cell-based; details: Homo sapiens, RXF 393
HT29 = experiment: as above; format: cell-based, human; details: Homo sapiens, HT-29
K-562 = experiment: as above; format: cell-based; details: Homo sapiens, K562
UACC-62 = experiment: as above; format: cell-based; details: Homo sapiens, UACC-62
A498 = experiment: as above; format: cell-based; details: Homo sapiens, A498
HOP-92 = experiment: as above; format: cell-based; details: Homo sapiens, HOP-92
UACC-257 = experiment: as above; format: cell-based; details: Homo sapiens, UACC-257
EKVX = experiment: as above; format: cell-based; details: Homo sapiens, EKVX
SK-MEL-28 = experiment: as above; format: cell-based; details: Homo sapiens, SK-MEL-28
CCRF-CEM = experiment: as above; format: cell-based; details: Homo sapiens, CCRF-CEM
MDA-MB-468 = experiment: as above; format: cell-based; details: Homo sapiens, MDA-MB-468
MALME-3M = experiment: as above; format: cell-based; details: Homo sapiens, Malme-3M
RPMI-8226 = experiment: as above; format: cell-based; details: Homo sapiens, RPMI-8226
wild type IDH2 = target: T2, wild type IDH2 (Homo sapiens, UniProt P48735); experiment: IDH2 enzyme inhibition assay (wild type IDH Assay Kit)
T2 sequence (P48735 40-452): T1 sequence (P48735 40-452 R140Q) with Q101R

HL-60(TB) = experiment: NCI 60 antitumor screening (single dose / five doses); format: cell-based; details: Homo sapiens, HL-60
ACHN = experiment: as above; format: cell-based; details: Homo sapiens, ACHN
UO-31 = experiment: as above; format: cell-based; details: Homo sapiens, UO-31
DU-145 = experiment: as above; format: cell-based; details: Homo sapiens, DU-145
LOX IMVI = experiment: as above; format: cell-based; details: Homo sapiens, LOX IMVI
HCT-116 = experiment: as above; format: cell-based; details: Homo sapiens, HCT-116
T-47D = experiment: as above; format: cell-based; details: Homo sapiens, T47D
SN 12C = experiment: as above; format: cell-based; details: Homo sapiens, SN12C
IGROV1 = experiment: as above; format: cell-based; details: Homo sapiens, IGROV-1
NCI/ADR-RES = experiment: as above; format: cell-based; details: Homo sapiens, NCI/ADR-RES
BT-549 = experiment: as above; format: cell-based; details: Homo sapiens, BT-549
SF-539 = experiment: as above; format: cell-based; details: Homo sapiens, SF-539
SK-MEL-5 = experiment: as above; format: cell-based; details: Homo sapiens, SK-MEL-5
MDA-MB-435 = experiment: as above; format: cell-based; details: Homo sapiens, MDA-MB-435
SW-620 = experiment: as above; format: cell-based, human; details: Homo sapiens, SW-620
IDH1 R132H = details: Figure 2; cited from earlier work

O=C(Nc1cccc(C(F)(F)F)c1)Nc1cc(S(=O)(=O)NC2CC2)ccc1-c1ccsc1 [AGI-6780]
IC50 (IDH2 R140Q): 0.023 µM

Cc1ccc(Cl)cc1NC(=O)Nc1cc(NC(=O)c2ccccc2)ccc1N1CCCC1 [CP-17]
IC50 (IDH2 R140Q): 0.041 µM

CC(C)(O)CNc1nc(Nc2ccnc(C(F)(F)F)c2)nc(-c2cccc(C(F)(F)F)n2)n1 [Enasidenib]
GI50 (MDA-MB-231/ATCC): 19.9 µM | GI50 (SR): 19.9 µM | GI50 (HCT-15): 19.9 µM | GI50 (SF-295): 15.8 µM | GI50 (786-0): 19.9 µM | IC50 (IDH2^R140Q): 0.0755 ± 0.00369 µM | GI50 (COLO 205): 19.9 µM | GI50 (MOLT-4): 12.6 µM | GI50 (SNB-75): 15.8 µM | GI50 (RXF 393): 19.9 µM | GI50 (HT29): 15.8 µM | GI50 (K-562): 31.6 µM | GI50 (UACC-62): 15.8 µM | GI50 (A498): 15.8 µM | GI50 (HOP-92): 25.1 µM | GI50 (UACC-257): 19.9 µM | GI50 (EKVX): 19.9 µM | IC50 (IDH2 R140Q): 0.1 µM | GI50 (SK-MEL-28): 15.8 µM | GI50 (CCRF-CEM): 19.9 µM | GI50 (MDA-MB-468): 19.9 µM | GI50 (MALME-3M): 19.9 µM | GI50 (RPMI-8226): 19.9 µM | IC50 (wild type IDH2): 2.33 ± 0.09 µM | GI50 (HL-60(TB)): 19.9 µM | GI50 (ACHN): 25.1 µM | GI50 (UO-31): 19.9 µM | GI50 (DU-145): 19.9 µM | GI50 (LOX IMVI): 15.8 µM | GI50 (HCT-116): 15.8 µM | GI50 (T-47D): 15.8 µM | GI50 (SN 12C): 19.9 µM | GI50 (IGROV1): 31.6 µM | GI50 (NCI/ADR-RES): 15.8 µM | GI50 (BT-549): 15.8 µM | GI50 (SF-539): 15.8 µM | GI50 (SK-MEL-5): 12.6 µM | GI50 (MDA-MB-435): 15.8 µM | GI50 (SW-620): 25.1 µM

CC(C)Nc1cc(Nc2cccc(C(F)(F)F)n2)nc(-c2cccc(C(F)(F)F)c2)c1 [III]
IC50 (IDH2 R140Q): 0.074 µM

CC(C)Nc1cc(Nc2cccc(C(F)(F)F)n2)nc(-c2cccc(Cl)c2)c1 [II]
IC50 (IDH2 R140Q): 0.06 µM

CC(C)Nc1cc(Nc2cc(C(F)(F)F)ccn2)nc(-c2ccccc2)c1 [I]
IC50 (IDH2 R140Q): 0.055 µM

CC(C)(C)ONc1nc(Nc2ccnc(C(F)(F)F)c2)nc(-c2cccc(C(F)(F)F)n2)n1 [TQ05310]
IC50 (IDH2 R140Q): 0.137 µM

C[C@@H](Nc1nc(N[C@H](C)C(F)(F)F)nc(-c2cccc(Cl)n2)n1)C(F)(F)F [Vorasidenib]
IC50 (IDH1 R132H): 0.006 µM
